Laboratory results taken from PubChem BioAssay (NCI).
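How tested: cells in 96-well plates exposed to compound for 48 hours at five concentrations. The concentration for full growth arrest is given as TGI.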

Legend:
Assay in all cases: NCI anticancer screen, dose series, 48 h
786-0 renal = system: 786-0 renal
A498 renal = system: A498 renal
A549 NSCLC = system: A549 NSCLC
ACHN renal = system: ACHN renal
BT-549 breast = system: BT-549 breast
CAKI-1 renal = system: CAKI-1 renal
CCRF-CEM leukemia = system: CCRF-CEM leukemia
COLO 205 colon = system: COLO 205 colon
DU-145 prostate = system: DU-145 prostate
EKVX NSCLC = system: EKVX NSCLC
HCC-2998 colon = system: HCC-2998 colon
HCT-116 colon = system: HCT-116 colon
HCT-15 colon = system: HCT-15 colon
HL-60(TB) leukemia = system: HL-60(TB) leukemia
HOP-62 NSCLC = system: HOP-62 NSCLC
HOP-92 NSCLC = system: HOP-92 NSCLC
HS 578T breast = system: HS 578T breast
HT29 colon = system: HT29 colon
IGROV1 ovarian = system: IGROV1 ovarian
K-562 leukemia = system: K-562 leukemia
KM12 colon = system: KM12 colon
M14 melanoma = system: M14 melanoma
MALME-3M melanoma = system: MALME-3M melanoma
MCF7 breast = system: MCF7 breast
MDA-MB-231 breast = system: MDA-MB-231 breast
MDA-MB-435 = system: MDA-MB-435
MDA-N = system: MDA-N
MOLT-4 leukemia = system: MOLT-4 leukemia
NCI-H226 lung = system: NCI-H226 lung
NCI-H23 lung = system: NCI-H23 lung
NCI-H460 lung = system: NCI-H460 lung
NCI-H522 lung = system: NCI-H522 lung
NCI/ADR-RES ovarian = system: NCI/ADR-RES ovarian
OVCAR-3 ovarian = system: OVCAR-3 ovarian
OVCAR-4 ovarian = system: OVCAR-4 ovarian
OVCAR-5 ovarian = system: OVCAR-5 ovarian
OVCAR-8 ovarian = system: OVCAR-8 ovarian
PC-3 prostate = system: PC-3 prostate
RPMI-8226 leukemia = system: RPMI-8226 leukemia
RXF 393 renal = system: RXF 393 renal
SF-268 CNS = system: SF-268 CNS
SF-295 CNS = system: SF-295 CNS
SF-539 CNS = system: SF-539 CNS
SK-MEL-2 melanoma = system: SK-MEL-2 melanoma
SK-MEL-28 melanoma = system: SK-MEL-28 melanoma
SK-MEL-5 melanoma = system: SK-MEL-5 melanoma
SK-OV-3 ovarian = system: SK-OV-3 ovarian
SN12C renal = system: SN12C renal
SNB-19 CNS = system: SNB-19 CNS
SR leukemia = system: SR leukemia
T-47D breast = system: T-47D breast
TK-10 renal = system: TK-10 renal
U251 CNS = system: U251 CNS
UACC-257 melanoma = system: UACC-257 melanoma
UACC-62 melanoma = system: UACC-62 melanoma
UO-31 renal = system: UO-31 renal
LOX IMVI melanoma = system: LOX IMVI melanoma
SNB-75 CNS = system: SNB-75 CNS
SW-620 colon = system: SW-620 colon

CO/C=C(/C(=O)OC)c1ccccc1[C@@H]1CC1c1cccc(F)c1 (stereo partly drawn)
TGI (786-0 renal): > 100 µM
TGI (A498 renal): 95.9 µM
TGI (A549 NSCLC): 78.5 µM
TGI (ACHN renal): 62.7 µM
TGI (BT-549 breast): 61.4 µM
TGI (CAKI-1 renal): 70.4 µM
TGI (CCRF-CEM leukemia): 87.7 µM
TGI (COLO 205 colon): 30.3 µM
TGI (DU-145 prostate): > 100 µM
TGI (EKVX NSCLC): 88.1 µM
TGI (HCC-2998 colon): 94.8 µM
TGI (HCT-116 colon): 77.3 µM
TGI (HCT-15 colon): 78.1 µM
TGI (HL-60(TB) leukemia): 57.9 µM
TGI (HOP-62 NSCLC): > 100 µM
TGI (HOP-92 NSCLC): > 100 µM
TGI (HS 578T breast): > 100 µM
TGI (HT29 colon): > 100 µM
TGI (IGROV1 ovarian): 62.8 µM
TGI (K-562 leukemia): > 100 µM
TGI (KM12 colon): 83.9 µM
TGI (M14 melanoma): 81.6 µM
TGI (MALME-3M melanoma): 45.9 µM
TGI (MCF7 breast): > 100 µM
TGI (MDA-MB-231 breast): > 100 µM
TGI (MDA-MB-435): 44 µM
TGI (MDA-N): 91.2 µM
TGI (MOLT-4 leukemia): > 100 µM
TGI (NCI-H226 lung): > 100 µM
TGI (NCI-H23 lung): > 100 µM
TGI (NCI-H460 lung): > 100 µM
TGI (NCI-H522 lung): 35.3 µM
TGI (NCI/ADR-RES ovarian): 91.8 µM
TGI (OVCAR-3 ovarian): > 100 µM
TGI (OVCAR-4 ovarian): 96.7 µM
TGI (OVCAR-5 ovarian): > 100 µM
TGI (OVCAR-8 ovarian): > 100 µM
TGI (PC-3 prostate): > 100 µM
TGI (RPMI-8226 leukemia): 48.3 µM
TGI (RXF 393 renal): > 100 µM
TGI (SF-268 CNS): > 100 µM
TGI (SF-295 CNS): > 100 µM
TGI (SF-539 CNS): 58.1 µM
TGI (SK-MEL-2 melanoma): 37.4 µM
TGI (SK-MEL-28 melanoma): > 100 µM
TGI (SK-MEL-5 melanoma): 24.8 µM
TGI (SK-OV-3 ovarian): 79.7 µM
TGI (SN12C renal): 98.4 µM
TGI (SNB-19 CNS): > 100 µM
TGI (SR leukemia): > 100 µM
TGI (T-47D breast): > 100 µM
TGI (TK-10 renal): > 100 µM
TGI (U251 CNS): > 100 µM
TGI (UACC-257 melanoma): 52.4 µM
TGI (UACC-62 melanoma): 50.2 µM
TGI (UO-31 renal): > 100 µM

O=C1CS(=O)(=O)C(c2cccc(Oc3ccccc3)c2)N1c1cccc(Cl)c1 (stereo not drawn)
TGI (786-0 renal): 40.3 µM
TGI (A549 NSCLC): > 100 µM
TGI (ACHN renal): 59.5 µM
TGI (BT-549 breast): 93.2 µM
TGI (CAKI-1 renal): 83.5 µM
TGI (CCRF-CEM leukemia): > 100 µM
TGI (COLO 205 colon): 41.1 µM
TGI (DU-145 prostate): > 100 µM
TGI (EKVX NSCLC): 61.9 µM
TGI (HCC-2998 colon): 15.7 µM
TGI (HCT-116 colon): 29.6 µM
TGI (HCT-15 colon): > 100 µM
TGI (HL-60(TB) leukemia): > 100 µM
TGI (HOP-62 NSCLC): > 100 µM
TGI (HOP-92 NSCLC): 40.5 µM
TGI (HS 578T breast): 97 µM
TGI (HT29 colon): > 100 µM
TGI (IGROV1 ovarian): 69.9 µM
TGI (K-562 leukemia): 52.1 µM
TGI (KM12 colon): > 100 µM
TGI (LOX IMVI melanoma): 32.1 µM
TGI (M14 melanoma): 92.2 µM
TGI (MALME-3M melanoma): 52.6 µM
TGI (MCF7 breast): 32.4 µM
TGI (MDA-MB-231 breast): > 100 µM
TGI (MDA-MB-435): 65.8 µM
TGI (MDA-N): 49.2 µM
TGI (MOLT-4 leukemia): 58.1 µM
TGI (NCI-H226 lung): > 100 µM
TGI (NCI-H23 lung): > 100 µM
TGI (NCI-H460 lung): 41.3 µM
TGI (NCI-H522 lung): 45.2 µM
TGI (NCI/ADR-RES ovarian): > 100 µM
TGI (OVCAR-3 ovarian): 95.1 µM
TGI (OVCAR-4 ovarian): > 100 µM
TGI (OVCAR-5 ovarian): > 100 µM
TGI (OVCAR-8 ovarian): 82.8 µM
TGI (PC-3 prostate): > 100 µM
TGI (RXF 393 renal): 52.7 µM
TGI (SF-268 CNS): 76.7 µM
TGI (SF-295 CNS): > 100 µM
TGI (SF-539 CNS): 37.4 µM
TGI (SK-MEL-2 melanoma): 33.2 µM
TGI (SK-MEL-28 melanoma): > 100 µM
TGI (SK-MEL-5 melanoma): 31.1 µM
TGI (SK-OV-3 ovarian): > 100 µM
TGI (SN12C renal): > 100 µM
TGI (SNB-19 CNS): > 100 µM
TGI (SNB-75 CNS): > 100 µM
TGI (SR leukemia): 41.2 µM
TGI (SW-620 colon): > 100 µM
TGI (T-47D breast): > 100 µM
TGI (TK-10 renal): 63.1 µM
TGI (U251 CNS): 47.2 µM
TGI (UACC-257 melanoma): 46.4 µM
TGI (UACC-62 melanoma): 29.4 µM
TGI (UO-31 renal): > 100 µM
